Assay results published in ChEMBL document CHEMBL3091294, “Design, synthesis and evaluation of novel 4-dimethylamine flavonoid derivatives as potential multi-functional anti-Alzheimer agents” (Bioorg Med Chem, 2013).

What was measured:
Cholinesterase = Cholinesterase (Equus caballus, UniProt P81908)
Description: Inhibition of equine serum BChE using butylthiocholine chloride as substrate incubated for 15 mins prior to substrate addition by Ellman's method

[1] = molecular target: Amyloid-beta precursor protein (Homo sapiens) (UniProt P05067); assay: Inhibition of amyloid beta (1 to 42) aggregation (unknown origin) at 20 uM after 48 hrs by thioflavin-T fluorescence assay relative to control
Acetylcholinesterase [2] = molecular target: T1, Acetylcholinesterase (Electrophorus electricus, UniProt O42275)
Description: Inhibition of electric eel AChE using acetylthiocholine chloride as substrate incubated for 15 mins prior to substrate addition by Ellman's method

[3] = Antioxidant activity assessed as trolox equivalent of peroxyl radical scavenging activity at 1 to 5 uM after 15 mins by oxygen radical absorbance capacity-fluorescein assay; type: functional
Acetylcholinesterase [4] = molecular target: T1, Acetylcholinesterase; assay: Mixed-type inhibition of electric eel AChE using acetylthiocholine chloride as substrate incubated for 15 mins prior to substrate addition by Lineweaver-Burk plot analysis

T1 sequence (O42275 whole entry): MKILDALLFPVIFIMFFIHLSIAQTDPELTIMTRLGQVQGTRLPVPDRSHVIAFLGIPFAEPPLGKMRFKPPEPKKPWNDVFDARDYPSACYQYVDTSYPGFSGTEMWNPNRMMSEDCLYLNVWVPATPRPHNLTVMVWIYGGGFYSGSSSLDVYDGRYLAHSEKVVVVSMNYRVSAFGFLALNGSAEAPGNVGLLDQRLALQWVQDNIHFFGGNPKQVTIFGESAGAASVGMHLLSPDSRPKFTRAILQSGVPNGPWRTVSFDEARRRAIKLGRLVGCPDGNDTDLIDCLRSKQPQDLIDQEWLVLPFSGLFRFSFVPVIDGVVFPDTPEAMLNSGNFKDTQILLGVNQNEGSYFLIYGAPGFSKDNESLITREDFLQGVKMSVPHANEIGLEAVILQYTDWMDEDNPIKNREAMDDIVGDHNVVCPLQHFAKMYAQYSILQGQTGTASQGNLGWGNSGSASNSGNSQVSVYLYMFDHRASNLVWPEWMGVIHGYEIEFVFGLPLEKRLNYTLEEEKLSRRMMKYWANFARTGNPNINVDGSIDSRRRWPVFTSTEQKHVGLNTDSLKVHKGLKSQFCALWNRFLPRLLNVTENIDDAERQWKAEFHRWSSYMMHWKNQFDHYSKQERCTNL
Chain of Amyloid-beta precursor protein (Homo sapiens) (P05067 whole entry): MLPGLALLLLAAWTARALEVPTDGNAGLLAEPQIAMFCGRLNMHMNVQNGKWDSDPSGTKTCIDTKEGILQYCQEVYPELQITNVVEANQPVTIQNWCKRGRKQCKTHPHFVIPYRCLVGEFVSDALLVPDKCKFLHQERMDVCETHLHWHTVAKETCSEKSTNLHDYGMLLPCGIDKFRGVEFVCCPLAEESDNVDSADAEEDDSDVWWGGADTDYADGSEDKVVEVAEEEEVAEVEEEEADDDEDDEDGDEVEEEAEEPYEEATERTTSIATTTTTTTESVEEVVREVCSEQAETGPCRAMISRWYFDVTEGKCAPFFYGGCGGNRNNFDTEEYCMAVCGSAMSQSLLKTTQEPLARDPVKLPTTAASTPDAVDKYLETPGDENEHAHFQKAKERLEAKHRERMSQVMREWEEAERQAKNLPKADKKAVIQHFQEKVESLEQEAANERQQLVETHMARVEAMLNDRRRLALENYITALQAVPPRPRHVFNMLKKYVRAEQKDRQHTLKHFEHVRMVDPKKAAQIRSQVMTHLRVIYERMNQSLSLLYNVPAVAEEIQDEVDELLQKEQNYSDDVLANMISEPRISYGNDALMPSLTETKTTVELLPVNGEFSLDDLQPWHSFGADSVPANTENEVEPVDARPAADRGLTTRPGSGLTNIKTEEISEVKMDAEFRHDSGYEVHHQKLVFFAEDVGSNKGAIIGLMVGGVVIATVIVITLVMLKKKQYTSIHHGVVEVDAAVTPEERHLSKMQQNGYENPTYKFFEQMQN
Chain of Cholinesterase (P81908 whole entry): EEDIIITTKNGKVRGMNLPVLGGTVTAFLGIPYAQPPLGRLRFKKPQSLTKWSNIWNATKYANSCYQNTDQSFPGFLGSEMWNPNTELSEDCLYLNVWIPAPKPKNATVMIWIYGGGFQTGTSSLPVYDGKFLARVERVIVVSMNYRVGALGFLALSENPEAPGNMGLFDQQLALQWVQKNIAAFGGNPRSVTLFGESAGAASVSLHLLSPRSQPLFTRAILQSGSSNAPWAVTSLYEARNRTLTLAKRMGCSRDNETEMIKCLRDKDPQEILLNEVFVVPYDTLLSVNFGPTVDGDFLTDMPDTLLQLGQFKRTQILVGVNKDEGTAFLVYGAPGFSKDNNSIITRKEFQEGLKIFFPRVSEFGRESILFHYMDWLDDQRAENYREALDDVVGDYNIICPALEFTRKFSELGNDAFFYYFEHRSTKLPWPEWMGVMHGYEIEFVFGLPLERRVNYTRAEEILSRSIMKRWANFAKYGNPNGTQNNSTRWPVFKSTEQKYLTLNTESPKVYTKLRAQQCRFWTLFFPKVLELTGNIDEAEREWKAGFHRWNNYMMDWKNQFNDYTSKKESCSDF

| Structure (SMILES) | IC50 (Cholinesterase) | inhibition [1] | IC50 (Acetylcholinesterase [2]) | Activity [3] | Ki (Acetylcholinesterase [4]) |
| --- | --- | --- | --- | --- | --- |
| CN(CCCCCCOc1ccc2c(=O)cc(-c3ccc(N(C)C)cc3)oc2c1)Cc1ccccc1 | > 50 µM | 46.5% | 7.85 µM |  |  |
| CN(C)c1ccc(-c2cc(=O)c3ccc(OCCCCN4CCOCC4)cc3o2)cc1 | 10.1 µM | 44.7% | > 50 µM |  |  |
| CN(C)c1ccc(-c2cc(=O)c3ccc(OCCCCCCCCCCN4CCCCC4)cc3o2)cc1 | 2.42 µM | 40.7% | > 50 µM | 1.5 |  |
| CN(C)c1ccc(-c2cc(=O)c3ccc(OCCCCN4CCCC4)cc3o2)cc1 | 6.14 µM | 36.6% | 2.77 µM |  |  |
| CN(CCCCCCCCCCOc1ccc2c(=O)cc(-c3ccc(N(C)C)cc3)oc2c1)Cc1ccccc1 | > 50 µM | 29.4% | 11.4 µM | 1.5 |  |
| CN(C)c1ccc(-c2cc(=O)c3ccc(OCCCCCCCCN4CCCC4)cc3o2)cc1 | 2.6 µM | 42.1% | 1.99 µM | 1.5 |  |
| CCN(CC)CCCCCCCCCCOc1ccc2c(=O)cc(-c3ccc(N(C)C)cc3)oc2c1 | 2.31 µM | 33.4% | 3.74 µM | 1.5 |  |
| CN(CCCCCCCCOc1ccc2c(=O)cc(-c3ccc(N(C)C)cc3)oc2c1)Cc1ccccc1 | > 50 µM | 39.5% | 24 µM | 1.5 |  |
| CN(C)c1ccc(-c2cc(=O)c3ccc(OCCCCCCCCN4CCCCC4)cc3o2)cc1 | 8.72 µM | 34.8% | 7.88 µM | 1.5 |  |
| CCN(CC)CCCCCCCCOc1ccc2c(=O)cc(-c3ccc(N(C)C)cc3)oc2c1 | 5.01 µM | 45.8% | 1.83 µM | 1.5 | 0.386 µM |
| CN(CCCCOc1ccc2c(=O)cc(-c3ccc(N(C)C)cc3)oc2c1)Cc1ccccc1 | > 50 µM | 39.1% | 8.29 µM |  |  |
| CN(C)c1ccc(-c2cc(=O)c3ccc(OCCCCCCCCCCN4CCCC4)cc3o2)cc1 | 0.82 µM | 38.6% | 2.26 µM | 1.5 |  |
| CCN(CC)CCCCOc1ccc2c(=O)cc(-c3ccc(N(C)C)cc3)oc2c1 | 7.88 µM | 33.2% | 2.24 µM |  |  |
| CN(C)c1ccc(-c2cc(=O)c3ccc(OCCCCCCN4CCCCC4)cc3o2)cc1 | 5.52 µM | 25.4% | 6.73 µM |  |  |
| CN(C)c1ccc(-c2cc(=O)c3ccc(OCCCCCCN4CCCC4)cc3o2)cc1 | 11.5 µM | 32.6% | 9.18 µM |  |  |
| CN(CCCCCCCCCCCCOc1ccc2c(=O)cc(-c3ccc(N(C)C)cc3)oc2c1)Cc1ccccc1 | > 50 µM | 48.1% | 33.2 µM |  |  |
| CCN(CC)CCCCCCOc1ccc2c(=O)cc(-c3ccc(N(C)C)cc3)oc2c1 | 4.61 µM | 38.1% | 3.11 µM |  |  |
| CN(C)c1ccc(-c2cc(=O)c3ccc(OCCCCN4CCCCC4)cc3o2)cc1 | 6.12 µM | 30.6% | 3.04 µM |  |  |
